Laboratory results: US10030047B2 (Hoffmann-La Roche Inc., priority 2015, dated 2018)
≈ marks a conversion by molar mass, not a printed value.

system: A. baumannii strain ATCC17978; test: 50% growth inhibitory concentration (IC50) determination, Iso-Sensitest broth; assay type: cell-based; details: Acinetobacter baumannii; A. baumannii ATCC17978; Iso-Sensitest medium; OD 600 nm over 16 h; read-out: IC50 ATCC17978
Method: The in vitro antimicrobial activity of the compounds was alternatively determined according to the following procedure:
The assay used a 10-points Iso-Sensitest broth medium to measure quantitatively the in vitro activity of the compounds against A. baumannii ATCC 17978.
Stock compounds in DMSO were serially twofold diluted (e.g. range from 50 to 0.097 μM final concentration) in 384 wells microtiter plates and inoculated with 49 μl the bacterial suspension in Iso-Sensitest medium to have a final cell concentration of ˜5×10^(5) CFU/ml in a final volume/well of 50 ul/well. Microtiter plates were incubated at 35±2° C.
Bacterial cell growth was determined with the measurement of optical density at λ=600 nm each 20 minutes over a time course of 16 h.
Growth inhibition was calculated during the logarithmic growth of the bacterial cells with determination of the concentration inhibiting 50% (IC50) and 90% (IC90) of the growth.
Tables 3, 4 and 5 provide the 50% growth inhibitory concentrations (IC50) in micromoles per liter of the compounds of present invention obtained against the A. baumannii strain ATCC17978.

Row | SMILES | IC50 [µM]
1 | CN1Cc2ccccc2Sc2ccccc2CNC(=O)[C@H](Cc2c[nH]c3ccccc23)NC(=O)[C@H](CCCN)NC(=O)[C@@H]1Cc1ccc(-c2ccccc2)cc1 [Example 117, (12S,15S,18S)-15-(3-Amino-propyl)-18-biphenyl-4-ylmethyl-12-(1H-indol-3-ylmethyl)-19-methyl-2-thia-10,13,16,19-tetraaza-tricyclo[19.4.0.0*3,8*]pentacosa-1(25),3,5,7,21,23-hexaene-11,14,17-trione] | 8.1
2 | NCCCC[C@@H]1NC(=O)[C@@H](CCCN)NCc2cccnc2Sc2c(ccc(-c3ccccc3)c2Cl)CNC(=O)[C@H](Cc2c[nH]c3ccccc23)NC1=O [Example 124, (11R,14S,17S)-14-(4-Amino-butyl)-11-(3-amino-propyl)-25-chloro-17-(1H-indol-3-ylmethyl)-24-phenyl-2-thia-4,10,13,16,19-pentaaza-tricyclo[19.4.0.0*3,8*]pentacosa-1(25),3,5,7,21,23-hexaene-12,15,18-trione] | 34.9
3 | NCCCC[C@@H]1NC(=O)[C@H](CCCN)NCc2cccnc2Sc2c(ccc(-c3ccccc3)c2Cl)CNC(=O)[C@H](Cc2c[nH]c3ccccc23)NC1=O [Example 125, (11S,14S,17S)-14-(4-Amino-butyl)-11-(3-amino-propyl)-25-chloro-17-(1H-indol-3-ylmethyl)-24-phenyl-2-thia-4,10,13,16,19-pentaaza-tricyclo[19.4.0.0*3,8*]pentacosa-1(25),3,5,7,21,23-hexaene-12,15,18-trione] | 23.3
4 | CN1C(=O)[C@H](CCCCN)NC(=O)[C@@H](CCCN)NCc2cccnc2Sc2c(ccc(-c3ccccc3)c2Cl)CNC(=O)[C@@H]1Cc1c[nH]c2ccccc12 [Example 126, (11R,14S,17S)-14-(4-Amino-butyl)-11-(3-amino-propyl)-25-chloro-17-(1H-indol-3-ylmethyl)-16-methyl-24-phenyl-2-thia-4,10,13,16,19-pentaaza-tricyclo[19.4.0.0*3,8*]pentacosa-1(25),3,5,7,21,23-hexaene-12,15,18-trione] | 30.3
5 | CN1C(=O)[C@H](CCCCN)NC(=O)[C@H](CCCN)NCc2cccnc2Sc2c(Cl)ccc(C(F)(F)F)c2CNC(=O)[C@@H]1Cc1ccc2ccccc2n1 [Example 132, (11S,14S,17S)-14-(4-Amino-butyl)-11-(3-amino-propyl)-25-chloro-16-methyl-17-quinolin-2-ylmethyl-22-trifluoromethyl-2-thia-4,10,13,16,19-pentaaza-tricyclo[19.4.0.0*3,8*]pentacosa-1(25),3,5,7,21,23-hexaene-12,15,18-trione] | 17
6 | CN1C(=O)[C@H](CCCN)NC(=O)[C@H](CCCN)NCc2ccccc2Sc2c(Cl)cc(Cl)cc2CNC(=O)[C@@H]1Cc1c[nH]c2ccccc12 [Example 133, (12S,15S,18S)— 15,18-Bis-(3-amino-propyl)-4,6-dichloro-12-(1H-indol-3-ylmethyl)-13-methyl-2-thia-10,13,16,19-tetraaza-tricyclo[19.4.0.0*3,8*]pentacosa-1(25),3,5,7,21,23-hexaene-11,14,17-trione] | 0.1
7 | CN1C(=O)[C@H](CCCCN)NC(=O)[C@H](CCCN)NCc2cccnc2Sc2c(Cl)ccc(C(F)(F)F)c2CNC(=O)[C@@H]1Cc1c[nH]c2ccc(Cl)cc12 [Example 135, (11S,14S,17S)-14-(4-Amino-butyl)-11-(3-amino-propyl)-25-chloro-17-(5-chloro-1H-indol-3-ylmethyl)-16-methyl-22-trifluoromethyl-2-thia-4,10,13,16,19-pentaaza-tricyclo[19.4.0.0*3,8*]pentacosa-1(25),3,5,7,21,23-hexaene-12,15,18-trione] | 0.2
8 | CN1C(=O)[C@H](CCCCN)NC(=O)[C@H](CCCN)NCc2cccnc2Sc2c(Cl)ccc(C(F)(F)F)c2CNC(=O)[C@@H]1CC1CNc2ccccc21 (stereo partly drawn) [Example 136, (11S,14S,17S)-14-(4-Amino-butyl)-11-(3-amino-propyl)-25-chloro-17-(2,3-dihydro-1H-indol-3-ylmethyl)-16-methyl-22-trifluoromethyl-2-thia-4,10,13,16,19-pentaaza-tricyclo[19.4.0.0*3,8*]pentacosa-1(25),3,5,7,21,23-hexaene-12,15,18-trione] | 0.6

system: A. baumannii strain ATCC19606; test: Minimum inhibitory concentration (MIC) determination, microbroth dilution (CLSI); assay type: cell-based; details: Acinetobacter baumannii; A. baumannii ATCC19606; CAMHB; read after 20 hours; >=80% growth inhibition; read-out: ATCC19606 MIC
In short: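 After 20 h at 35±2 °C, MIC taken visually and by OD 600 nm as the lowest concentration giving ≥80% growth inhibition. Bacteria (~5×10^5 CFU/ml) were tested per CLSI microbroth dilution against twofold serial compound dilutions in cation-adjusted Mueller Hinton broth.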

Row | MIC [µg/mL] | SMILES
9 | 4 (≈ 5.19 µM) | CN1C(=O)[C@H](CCCCN)NC(=O)[C@H](CCCN)NCc2cccnc2Sc2c(Cl)cc(-n3ccnc3)cc2CNC(=O)[C@@H]1Cc1c[nH]c2ccccc12 [Example 227, (11S,14S,17S)-14-(4-Amino-butyl)-11-(3-amino-propyl)-25-chloro-23-imidazol-1-yl-17-(1H-indol-3-ylmethyl)-16-methyl-2-thia-4,10,13,16,19-pentaaza-tricyclo[19.4.0.0*3,8*]pentacosa-1(21),3,5,7,22,24-hexaene-12,15,18-trione]
10 | 0.12 (≈ 0.15 µM) | CN1C(=O)[C@H](CCCCN)NC(=O)[C@H](CCCN)NCc2cccnc2Sc2c(Cl)ccc(-c3ccc(N)nc3)c2CNC(=O)[C@@H]1Cc1c[nH]c2ccccc12 [Example 228, (11S,14S,17S)-14-(4-Amino-butyl)-11-(3-amino-propyl)-22-(6-amino-pyridin-3-yl)-25-chloro-17-(1H-indol-3-ylmethyl)-16-methyl-2-thia-4,10,13,16,19-pentaaza-tricyclo[19.4.0.0*3,8*]pentacosa-1(21),3,5,7,22,24-hexaene-12,15,18-trione]
11 | 1 (≈ 1.24 µM) | CN1C(=O)[C@H](CCCCN)NC(=O)[C@H](CCCN)NCc2cccnc2Sc2c(Cl)cc(-c3ccnc(C#N)c3)cc2CNC(=O)[C@@H]1Cc1c[nH]c2ccccc12 [Example 229, 4-[(11S,14S,17S)-14-(4-Amino-butyl)-11-(3-amino-propyl)-25-chloro-17-(1H-indol-3-ylmethyl)-16-methyl-12,15,18-trioxo-2-thia-4,10,13,16,19-pentaaza-tricyclo[19.4.0.0*3,8*]pentacosa-1(21),3,5,7,22,24-hexaen-23-yl]-pyridine-2-carbonitrile]
12 | 0.12 (≈ 0.15 µM) | CN1C(=O)[C@H](CCCCN)NC(=O)[C@H](CCCN)NCc2cccnc2Sc2c(Cl)ccc(-c3ccc(O)nc3)c2CNC(=O)[C@@H]1Cc1c[nH]c2ccccc12 [Example 230, (11S,14S,17S)-14-(4-Amino-butyl)-11-(3-amino-propyl)-25-chloro-22-(6-hydroxy-pyridin-3-yl)-17-(1H-indol-3-ylmethyl)-16-methyl-2-thia-4,10,13,16,19-pentaaza-tricyclo[19.4.0.0*3,8*]pentacosa-1(21),3,5,7,22,24-hexaene-12,15,18-trione]
13 | 1 (≈ 1.23 µM) | CN1C(=O)[C@H](CCCCN)NC(=O)[C@H](CCC(N)=O)NCc2cccnc2Sc2c(Cl)ccc(-c3ccnc(F)c3)c2CNC(=O)[C@@H]1Cc1c[nH]c2ccccc12 [Example 231, 3-[(11S,14S,17S)-14-(4-Amino-butyl)-25-chloro-22-(2-fluoro-pyridin-4-yl)-17-(1H-indol-3-ylmethyl)-16-methyl-12,15,18-trioxo-2-thia-4,10,13,16,19-pentaaza-tricyclo[19.4.0.0*3,8*]pentacosa-1(21),3,5,7,22,24-hexaen-11-yl]-propionamide]
14 | 1 (≈ 1.3 µM) | CN1C(=O)[C@H](CCCCN)NC(=O)[C@H](CCCN)NCc2cccnc2Sc2c(Cl)cc(-c3cc[nH]c3)cc2CNC(=O)[C@@H]1Cc1c[nH]c2ccccc12 [Example 232, (11S,14S,17S)-14-(4-Amino-butyl)-11-(3-amino-propyl)-25-chloro-17-(1H-indol-3-ylmethyl)-16-methyl-23-(1H-pyrrol-3-yl)-2-thia-4,10,13,16,19-pentaaza-tricyclo[19.4.0.0*3,8*]pentacosa-1(25),3(8),4,6,21,23-hexaene-12,15,18-trione]
15 | 0.25 (≈ 0.336 µM) | Cc1[nH]c2ccccc2c1C[C@H]1C(=O)NCc2cc(C#N)cc(Cl)c2Sc2ncccc2CN[C@@H](CCCN)C(=O)N[C@@H](CCCCN)C(=O)N1C [Example 233, (11S,14S,17S)-14-(4-Amino-butyl)-11-(3-amino-propyl)-25-chloro-16-methyl-17-(2-methyl-1H-indol-3-ylmethyl)-12,15,18-trioxo-2-thia-4,10,13,16,19-pentaaza-tricyclo[19.4.0.0*3,8*]pentacosa-1(25),3(8),4,6,21,23-hexaene-23-carbonitrile]
16 | 2 (≈ 2.29 µM) | Cc1[nH]c2ccccc2c1C[C@H]1C(=O)NCc2cc(-c3ccc(S(C)(=O)=O)cc3)cc(Cl)c2Sc2ncccc2CN[C@@H](CCCN)C(=O)N[C@@H](CCCCN)C(=O)N1C [Example 234, (11S,14S,17S)-14-(4-Amino-butyl)-11-(3-amino-propyl)-25-chloro-23-(4-methanesulfonyl-phenyl)-16-methyl-17-(2-methyl-1H-indol-3-ylmethyl)-2-thia-4,10,13,16,19-pentaaza-tricyclo[19.4.0.0*3,8*]pentacosa-1(25),3(8),4,6,21,23-hexaene-12,15,18-trione]
17 | 0.5 (≈ 0.572 µM) | Cc1[nH]c2ccccc2c1C[C@H]1C(=O)NCc2cc(-c3ccc(S(N)(=O)=O)cc3)cc(Cl)c2Sc2ncccc2CN[C@@H](CCCN)C(=O)N[C@@H](CCCCN)C(=O)N1C [Example 235, 4-[(11S,14S,17S)-14-(4-Amino-butyl)-11-(3-amino-propyl)-25-chloro-16-methyl-17-(2-methyl-1H-indol-3-ylmethyl)-12,15,18-trioxo-2-thia-4,10,13,16,19-pentaaza-tricyclo[19.4.0.0*3,8*]pentacosa-1(25),3(8),4,6,21,23-hexaen-23-yl]-benzenesulfonamide]
